Data published in patent US4336375A, “Cephalosporanic acid derivatives” (American Cyanamid Company, priority 1980, dated 1982).
≈ marks a conversion by molar mass, not a printed value. Like-named read-outs stand apart in the source and are kept apart here.

Legend:
Assay type in all cases: cell-based
[1] = tested on: Klebsiella pneumoniae MA75-1; assay: In vitro MIC, agar dilution, Klebsiella pneumoniae MA75-1; conditions: MA751; Klebsiella pneumoniae MA75-1; agar dilution, 35° C., 18 hours, nutrient agar; read-out: Minimal Inhibitory Concentration
Procedure: (§1) The in vitro activity of representative compounds of the present invention are given in the following Table I in terms of minimal inhibitory concentration. The test used was the standard agar dilution test using a Steers multiple inocula replicator and incubating at 35° C. for 18 hours in conventional nutrient agar.

[2] = tested on: Enterobacter aerogenes UR76-3; assay: In vitro MIC, agar dilution, Enterobacter aerogenes UR76-3; conditions: Klebsiella aerogenes, UR763; Enterobacter aerogenes UR76-3; agar dilution, 35° C., 18 hours, nutrient agar; read-out: Minimal Inhibitory Concentration
Procedure: as §1

[3] = tested on: Enterobacter cloacae OSU75-2; assay: In vitro MIC, agar dilution, Enterobacter cloacae OSU75-2; conditions: OSU752; Enterobacter cloacae OSU75-2; agar dilution, 35° C., 18 hours, nutrient agar; read-out: Minimal Inhibitory Concentration
Procedure: as §1

Serratia marcens K77-1 = assay: In vitro MIC, agar dilution, Serratia marcens K77-1; conditions: K771; Serratia marcens K77-1; agar dilution, 35° C., 18 hours, nutrient agar; read-out: Minimal Inhibitory Concentration
Procedure: as §1

Proteus vulgaris N74-1 = assay: In vitro MIC, agar dilution, Proteus vulgaris N74-1; conditions: N741, 35° C., 18 hours, nutrient agar, read-out: Minimal Inhibitory Concentration
Procedure: as §1

[4] = tested on: Pseudomonas aeruginosa 12-4-4; assay: In vitro MIC, agar dilution, Pseudomonas aeruginosa 12-4-4; conditions: 1244; Pseudomonas aeruginosa 12-4-4; agar dilution, 35° C., 18 hours, nutrient agar; read-out: Minimal Inhibitory Concentration
Procedure: as §1

Escherichia coli OSU75-1 = assay: In vitro MIC, agar dilution, Escherichia coli OSU75-1; conditions: OSU751, 35° C., 18 hours, nutrient agar, read-out: Minimal Inhibitory Concentration
Procedure: as §1

Enterococcus SM77-15 = assay: In vitro MIC, agar dilution, Enterococcus SM77-15; conditions: SM7715; Enterococcus SM77-15; agar dilution, 35° C., 18 hours, nutrient agar; read-out: Minimal Inhibitory Concentration
Procedure: as §1

[5] = tested on: Staphylococcus aureus Q74-1; assay: In vitro MIC, agar dilution, Staphylococcus aureus Q74-1; conditions: Q741; Staphylococcus aureus Q74-1; agar dilution, 35° C., 18 hours, nutrient agar; read-out: Minimal Inhibitory Concentration
Procedure: as §1

Serratia K101 = assay: In vitro MIC, agar dilution, Serratia K101; conditions: Serratia K101; agar dilution, 35° C., 18 hours, nutrient agar; read-out: Minimal Inhibitory Concentration
Procedure: as §1

Proteus rettgeri N76-1 = assay: In vitro MIC, agar dilution, Proteus rettgeri N76-1; conditions: Providencia rettgeri, N761; Proteus rettgeri N76-1; agar dilution, 35° C., 18 hours, nutrient agar; read-out: Minimal Inhibitory Concentration
Procedure: as §1

[6] = tested on: Escherichia coli ESS22-31; assay: In vitro MIC, agar dilution, Escherichia coli ESS22-31; conditions: read-out: Minimal Inhibitory Concentration
Procedure: as §1

[7] = tested on: Klebsiella pneumoniae W75-2; assay: In vitro MIC, agar dilution, Klebsiella pneumoniae W75-2; conditions: W752; Klebsiella pneumoniae W75-2; agar dilution, 35° C., 18 hours, nutrient agar; read-out: Minimal Inhibitory Concentration
Procedure: as §1

Serratia marcens QHC77-2 = assay: In vitro MIC, agar dilution, Serratia marcens QHC77-2; conditions: QHC772; Serratia marcens QHC77-2; agar dilution, 35° C., 18 hours, nutrient agar; read-out: Minimal Inhibitory Concentration
Procedure: as §1

[8] = tested on: Staphylococcus aureus Q74-6; assay: In vitro MIC, agar dilution, Staphylococcus aureus Q74-6; conditions: Q746; Staphylococcus aureus Q74-6; agar dilution, 35° C., 18 hours, nutrient agar; read-out: Minimal Inhibitory Concentration
Procedure: as §1

Proteus morganii K72 = assay: In vitro MIC, agar dilution, Proteus morganii K72; conditions: Morganella morganii; Proteus morganii K72; agar dilution, 35° C., 18 hours, nutrient agar; read-out: Minimal Inhibitory Concentration
Procedure: as §1

[9] = tested on: Pseudomonas aeruginosa G236; assay: In vitro MIC, agar dilution, Pseudomonas aeruginosa G236; conditions: Pseudomonas aeruginosa G236; agar dilution, 35° C., 18 hours, nutrient agar; read-out: Minimal Inhibitory Concentration
Procedure: as §1

[10] = tested on: Pseudomonas aeruginosa UCS 76-13; assay: In vitro MIC, agar dilution, Pseudomonas aeruginosa UCS 76-13; conditions: UCS7613; Pseudomonas aeruginosa UCS 76-13; agar dilution, 35° C., 18 hours, nutrient agar; read-out: Minimal Inhibitory Concentration
Procedure: as §1

Klebsiella pneumoniae AD = assay: In vitro MIC, agar dilution, Klebsiella pneumoniae AD; conditions: Klebsiella pneumoniae AD; agar dilution, 35° C., 18 hours, nutrient agar; read-out: Minimal Inhibitory Concentration
Procedure: as §1

[11] = tested on: Klebsiella pneumoniae W75-4; assay: In vitro MIC, agar dilution, Klebsiella pneumoniae W75-4; conditions: W754; Klebsiella pneumoniae W75-4; agar dilution, 35° C., 18 hours, nutrient agar; read-out: Minimal Inhibitory Concentration
Procedure: as §1

[12] = tested on: Pseudomonas aeruginosa PD05141; assay: In vitro MIC, agar dilution, Pseudomonas aeruginosa PD05141; conditions: Pseudomonas aeruginosa PD05141; agar dilution, 35° C., 18 hours, nutrient agar; read-out: Minimal Inhibitory Concentration
Procedure: as §1

[13] = tested on: Klebsiella pneumoniae UR76-1; assay: In vitro MIC, agar dilution, Klebsiella pneumoniae UR76-1; conditions: UR761; Klebsiella pneumoniae UR76-1; agar dilution, 35° C., 18 hours, nutrient agar; read-out: Minimal Inhibitory Concentration
Procedure: as §1

Escherichia coli 311 = assay: In vitro MIC, agar dilution, Escherichia coli 311; conditions: 35° C., 18 hours, nutrient agar, read-out: Minimal Inhibitory Concentration
Procedure: as §1

[14] = tested on: Enterobacter cloacae MA75-1; assay: In vitro MIC, agar dilution, Enterobacter cloacae MA75-1; conditions: MA751; Enterobacter cloacae MA75-1; agar dilution, 35° C., 18 hours, nutrient agar; read-out: Minimal Inhibitory Concentration
Procedure: as §1

Escherichia coli W75-1 = assay: In vitro MIC, agar dilution, Escherichia coli W75-1; conditions: W751, 35° C., 18 hours, nutrient agar, read-out: Minimal Inhibitory Concentration
Procedure: as §1

[15] = Escherichia coli, ESS2231, 18 h

| Compound | MIC [1] [µg/mL] | MIC [2] [µg/mL] | MIC [3] [µg/mL] | MIC (Serratia marcens K77-1) [µg/mL] | MIC (Proteus vulgaris N74-1) [µg/mL] | MIC [4] [µg/mL] | MIC (Escherichia coli OSU75-1) [µg/mL] | MIC (Enterococcus SM77-15) [µg/mL] | MIC [5] [µg/mL] | MIC (Serratia K101) [µg/mL] | MIC (Proteus rettgeri N76-1) [µg/mL] | MIC [7] [µg/mL] | MIC (Serratia marcens QHC77-2) [µg/mL] | MIC [8] [µg/mL] | MIC (Proteus morganii K72) [µg/mL] | MIC [9] [µg/mL] | MIC [10] [µg/mL] | MIC (Klebsiella pneumoniae AD) [µg/mL] | MIC [11] [µg/mL] | MIC [12] [µg/mL] | other results |
| --- | --- | --- | --- | --- | --- | --- | --- | --- | --- | --- | --- | --- | --- | --- | --- | --- | --- | --- | --- | --- | --- |
| CCN1CCN(C(=O)NC(C(=O)NC2C(=O)N3C(C(=O)O)=C(CSc4nnc(-n5nc(C)cc5C)n4N)CS[C@H]23)c2ccc(O)cc2)C(=O)C1=O (stereo partly drawn) [Compound VIII, 7-[2-(4-Ethyl-2,3-dioxo-1-piperazinecarboxamido)-2-(p-hydroxyphenyl)acetamido]-3-[4-amino-5-(3,5-dimethyl-1-pyrazolyl)-1,2,4-triazol-3-ylthiomethyl]-3-cephem-4-carboxylic acid] | 2 (≈ 2.7 µM) | 1 (≈ 1.35 µM) | 128 (≈ 173 µM) | 128 (≈ 173 µM) | 128 (≈ 173 µM) | 32 (≈ 43.3 µM) | 4 (≈ 5.41 µM) | 128 (≈ 173 µM) | 4 (≈ 5.41 µM) | 64 (≈ 86.5 µM) | 16 (≈ 21.6 µM) | 4 (≈ 5.41 µM) | > 128 | 8 (≈ 10.8 µM) | 32 (≈ 43.3 µM) | 128 (≈ 173 µM) | > 128 | 2 (≈ 2.7 µM) | 32 (≈ 43.3 µM) | > 128 | MIC ([6]; ESS2231, Escherichia coli ESS22-31, agar dilution, 35° C., 18 hours, nutrient agar): ≤ 0.12 µg/mL; MIC [13]: 32 µg/mL (≈ 43.3 µM); MIC (Escherichia coli 311): 2 µg/mL (≈ 2.7 µM); MIC [14]: > 128 µg/mL; MIC (Escherichia coli W75-1): 4 µg/mL (≈ 5.41 µM) |
| CC(=O)OCC1=C(C(=O)O)N2C(=O)[C@@H](NC(=O)[C@H](N)c3ccccc3)[C@H]2SC1 [Compound XI, Cephaloglycin, reference compound] | 1 (≈ 2.47 µM) | 2 (≈ 4.93 µM) | > 128 | > 128 | > 128 | > 128 | 2 (≈ 4.93 µM) | 64 (≈ 158 µM) | 1 (≈ 2.47 µM) | > 128 | > 128 | 2 (≈ 4.93 µM) | > 128 | 0.12 (≈ 0.296 µM) | > 128 | > 128 | > 128 | 0.5 (≈ 1.23 µM) | 8 (≈ 19.7 µM) | > 128 | MIC [6, 15]: 0.12 µg/mL (≈ 0.296 µM); MIC [13]: 16 µg/mL (≈ 39.5 µM); MIC (Escherichia coli 311): 2 µg/mL (≈ 4.93 µM); MIC [14]: > 128 µg/mL; MIC (Escherichia coli W75-1): 2 µg/mL (≈ 4.93 µM) |
| Cc1nnc(SCC2=C(C(=O)O)N3C(=O)[C@@H](NC(=O)Cn4cnnn4)[C@H]3SC2)s1 [Compound XII, Cefazolin, reference compound] | 1 (≈ 2.2 µM) | 2 (≈ 4.4 µM) | > 128 | > 128 | > 128 | > 128 | 1 (≈ 2.2 µM) | 16 (≈ 35.2 µM) | 0.12 (≈ 0.264 µM) | > 128 | > 128 | 1 (≈ 2.2 µM) | > 128 | ≤ 0.06 | > 128 | > 128 | > 128 | 0.5 (≈ 1.1 µM) | 8 (≈ 17.6 µM) | > 128 | MIC [6, 15]: 0.25 µg/mL (≈ 0.55 µM); MIC [13]: 64 µg/mL (≈ 141 µM); MIC (Escherichia coli 311): 0.5 µg/mL (≈ 1.1 µM); MIC [14]: > 128 µg/mL; MIC (Escherichia coli W75-1): 1 µg/mL (≈ 2.2 µM) |
